Measurements taken from publication PMC9917282, “Crystal Structure of Inhibitor-Bound Bacterial Oligopeptidase B in the Closed State: Similarity and Difference between Protozoan and Bacterial Enzymes” (International Journal of Molecular Sciences, 2023).

Target: T1, SpOpB (PSP) (Serratia proteamaculans, UniProt B3VI58)
T1 construct: gene opdB; plasmid pET-6HisOpB, expressed in E. coli BL21(DE3)RIPL; monomer in asymmetric unit
T1 sequence (B3VI58 2-677): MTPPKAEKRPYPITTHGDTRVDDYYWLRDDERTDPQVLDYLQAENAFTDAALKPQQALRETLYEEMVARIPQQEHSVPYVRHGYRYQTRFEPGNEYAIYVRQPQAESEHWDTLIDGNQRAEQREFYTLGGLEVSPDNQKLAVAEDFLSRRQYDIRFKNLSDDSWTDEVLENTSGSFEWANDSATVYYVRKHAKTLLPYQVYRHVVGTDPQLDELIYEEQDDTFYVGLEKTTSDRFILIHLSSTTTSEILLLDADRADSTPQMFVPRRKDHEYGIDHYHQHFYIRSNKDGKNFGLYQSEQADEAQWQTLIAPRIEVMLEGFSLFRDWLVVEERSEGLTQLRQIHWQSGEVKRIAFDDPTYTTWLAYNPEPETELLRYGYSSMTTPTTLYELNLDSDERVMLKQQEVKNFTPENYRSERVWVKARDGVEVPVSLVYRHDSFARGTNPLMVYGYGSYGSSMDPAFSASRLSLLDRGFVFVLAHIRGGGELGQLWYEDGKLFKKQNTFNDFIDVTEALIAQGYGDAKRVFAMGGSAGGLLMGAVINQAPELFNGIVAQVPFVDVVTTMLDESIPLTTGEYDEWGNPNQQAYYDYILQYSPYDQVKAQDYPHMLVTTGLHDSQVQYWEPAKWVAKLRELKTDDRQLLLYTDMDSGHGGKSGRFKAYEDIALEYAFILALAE
Test: Kitz-Wilson inactivation kinetics, residual BAPNA hydrolysis at […] nm; crystal structure of complex at […] A
Format: biochemical
Conditions: covalent; irreversible alkylation, Ki of the initial enzyme-inhibitor complex; bound to S532 and H652; 0.1 M Tris-HCl pH 8.0, 25 °C; 70 nM enzyme, 50–260 µM TCK

SMILES: Cc1ccc(S(=O)(=O)N[C@@H](CCCCN)C(=O)CCl)cc1 [TCK]
- KI (inactivation): 280 ± 60 µM
